Measured values taken from patent publication US20250136581A1, “SUBSTITUTED TRIAZOLE DERIVATIVE, PREPARATION METHOD THEREFOR, PHARMACEUTICAL COMPOSITION THEREOF, AND USE THEREOF” (SHANGHAI SIMR BIOTECHNOLOGY CO., LTD., priority 2021, published 2025).

Columns and labels:
human α3β3γ2 receptors = human α3β3γ2 receptors (Homo sapiens (Human), UniProt P18507+P34903); test: 3H-flunitrazepam competition binding, human α3β3γ2 GABAA receptor; conditions: HEK293 cell membranes, 1 nM 3H-flunitrazepam; read-out: Ki α3
Method in brief: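 Radioligand displacement of 1 nM 3H-flunitrazepam from membranes of HEK293 lines stably expressing the human subtypes, 1 h at room temperature, compound in 8-point 4-fold series. Bound label on GF/C filters counted by scintillation; Ki derived from fitted IC50, with flumazenil as low control.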

human MDR1 P-gp = test: MDCKII-MDR1 permeability; assay type: in vitro ADME, canine; conditions: dog
Experimental: Brain permeability of compounds was assessed by measuring compound efflux in Madin-Darby canine kidney-II (MDCKII) cells transfected with the human MDR1 gene (Drug metabolism and disposition, 2008, 36(2), 268-275).
The active transport mechanism was mediated by uptake and efflux transporters expressed on MDCKII-MDR1 cells, primarily by overexpressed human MDR1 P-gp.
MDCKII-MDR1 cells were seeded on the polycarbonate microporous membrane of Transwell™ at a density of (0.85 to 5.0)×10^6/cm^2, and used for experiments when the cells reached complete confluence (3 to 5 d). […] At the beginning and end of the experiment, samples were collected from the transport solution side. After incubation for a certain period of time (1.5 hours), samples were also collected from the buffer side, and the concentration was determined by HPLC-MS/MS or scintillation counting.

[1] = Rat pharmacokinetic experiment; assay type: in vivo; conditions: rat, po, 3 mg/kg
Experimental: The maximum plasma concentration (Cmax) in the rat pharmacokinetic experiment was used to evaluate the absorption of the compounds in rat in vivo. The experimental compound was dissolved and then orally administered by gavage (p.o.) to male SD rats. The rats were fasted overnight before drug administration, and blood was collected via venipuncture at 0.25, 0.5, 1, 2, 4, and 7 hours post dose. Approximately 100 μL blood was collected for each sample; at the same time, the whole brain was taken and homogenized with 3 times the amount of PBS for analysis. The […] method was used to determine drug concentrations in plasma and brain tissue, and the proportion of compounds entering the brain (B/P) was calculated based on the AUC of the compound. Pharmacokinetic parameters were calculated using Phoenix WinNonlin 7.0. The administration vehicle was 5% CMC-Na aqueous solution.

- Ki (human α3β3γ2 receptors): 14.1 nM
- efflux ratio at 1.5 h (human MDR1 P-gp; MDCK-MDR1, pH 7.4, Papp (B-A)/Papp (A-B), read-out: Efflux ratio (ER)): 7.52
- Papp A→B at 1.5 h (human MDR1 P-gp; MDCK-MDR1, pH 7.4, 37° C., 1.5 hours): 4.16 ×10⁻⁶ cm/s
- Kp ([1]; male, SD, brain / plasma, read-out: B/P (proportion of compounds entering the brain)): 0.0015
- Cmax ([1]; plasma, male SD rats): 1510 ng/mL
Structure (SMILES): Cc1nnn(-c2ccc(C(F)F)cc2)c1COc1ccc(N2CC(=O)NC(C)C2)nn1 (centres unmarked) [Example 6, 4-(6-((1-(4-(Difluoromethyl)phenyl)-4-methyl-1H-1,2,3-triazol-5-yl)methoxy)pyridazin-3-yl)-6-methylpiperazin-2-one]
